Test results published in patent US5310920A, “N-vinylimidazolidine derivatives insecticides containing same as an effective ingredient” (priority 1991, dated 1994).
≈ marks a conversion by molar mass, not a printed value. Like-named read-outs stand apart in the source and are kept apart here.

Experiments:
[1] = system: Myzus persicae Suizer - green peach aphid; assay: Test Example 4: Effect on green peach aphid, density of living insects; assay type: in vivo; conditions: 50 ppm, after three days; 100 × (living insects after / before treatment)
Procedure: Effect on Myzus persicae Suizer green peach aphid
20 ml of a dilution of the emulsion prepared in Formulation Example 1 was sprayed over potted eggplant seedlings (fourth or fifth leaf stage), as having been grown in a greenhouse, on which the green peach aphids had been parasitic. After the application, the seedlings were placed in the greenhouse and, after three days, the number of the aphids was checked.
(§1) Density of Living Insects = 100 × (number of living insects after
(§2) treatment/number of living insects before treatment)

[2] = system: Callosobruchus chinensis Linne - Azuki bean weevil; assay: whole plant or invertebrate; assay type: in vivo; conditions: 48 h
Procedure: Effect on Callosobruchus chinensis Linne--Azuki bean weevil:
An acetone solution of the compound of the invention was added to a Petri dish with a diameter of 9 cm, followed by removal of the acetone by evaporation. Twenty female adults of the Azuki bean weevil, which were 2 to 3 days after emergence were placed in the dish at 25° C. After 48 hours, the mortality was checked.

[3] = system: Laodelphax striatellus Fallen - smaller brown planthopper; assay: Test Example 1: Effect on smaller brown planthopper, mortality; assay type: in vivo; conditions: 5 ppm, 48 hours, 25° C., ten female adults, rice seedlings
Procedure: Effect on Laodelphax sriatellus Fallen--smaller brown planthopper
(§3) The emulsion prepared in Formulation Example 1 was diluted to a predetermined concentration and 2 ml of the diluted emulsion was applied over a bundle of several rice seedlings (about third leaf stage). After drying in air, the treated seedlings were covered with a metal gauze cylinder, in which ten female adults of the smaller brown planthopper were released, followed by placing in a temperature controlled room at 25° C. After 48 hours, the mortality was checked.

[4] = system: resistant strain of Nephotettix cincticeptus Uhler - resistant green rice leafhopper; assay: Test Example 2: Effect on resistant green rice leafhopper, mortality; assay type: in vivo; conditions: Nephotettix cincticeps
Procedure: (§4) Effect on resistant strain of Nephotettix cincticeptus Uhler--resistant green rice leafhopper
as §3, with “and 3” for “and 2”, “the leafhopper that is resistant to organophosphate and carbamate insecticides” for “the smaller brown planthopper”

[5] = system: Laodelphax striatellus Fallen - smaller brown planthopper; assay: Test Example 5: Effect on smaller brown planthopper, LC50; assay type: in vivo; conditions: 48 hours, 25° C.
Procedure: Effect on Laodelphax striatellus Fallen--smaller brown planthopper
(§5) The emulsion prepared in Formulation Example 1 was diluted to predetermined concentrations, and 2 ml of each diluted emulsion was applied over a bundle of several rice seedlings (about third leaf stage). After drying in air, the treated seedlings were covered with a metal gauze cylinder, in which ten female adults of the smaller brown planthopper were released, followed by placing in a temperature controlled room at 25° C. After 48 hours, the mortality was checked, from which the medium-lethal concentration (LCO) was obtained.

[6] = system: resistant strain of Nephotettix cincticeptus Uhler - resistant green rice leafhopper; assay: Test Example 6: Effect on resistant green rice leafhopper, LC50; assay type: in vivo; conditions: Nephotettix cincticeps, 48 h
Procedure: as §4
as §5, with “leafhopper that is resistant to organophosphate and carbamate insecticides” for “smaller brown planthopper”, “50 %-lethal” for “medium-lethal”, “(LC50)” for “(LCO)”

[7] = system: Myzus persicae Suizer - green peach aphid; assay: Test Example 7: Effect on green peach aphid, density of living insects; assay type: in vivo; conditions: after three days; 100 × (living insects after / before treatment)
From the text: Effect on Myzus persicae Suizer--green peach aphid
After the application, the seedlings were placed in the greenhouse and, after three days, the number of the aphids was checked, from which the density of the living insects was obtained. The tests were repeated two times.
as §1, §2

[8] = Test Example 8: Acute Toxicity Test to Mice; conditions: mouse, in vivo, po; forced peroral administration, corn oil, 6-week mice, up to 14 days
Procedure: Acute Toxicity Test to Mice
The compound of the invention having a predetermined concentration was dissolved in corn oil and applied to 6-week mice by forced peroral administration. Up to 14 days from the administration, the number of the died mice was counted periodically, from which the 50 %-lethal […] (LD50) was obtained. One group for the test comprised ten mice.

[9] = 3 ppm, 48 hours, 25° C., ten female adults resistant to organophosphate and carbamate insecticides, read-out: Mortality (%)

## COP(=O)(OC)OC=C(Cl)Cl [DDVP, 0,0-dimethyl-0-(2,2-dichlorovinyl)phosphate]
[1]
  Density of Living Insects: 30

## CCOP(=S)(OCC)Oc1cc(C)nc(C(C)C)n1 [Diazinone]
[2]
  mortality at 0.01 mg/dish, 0.01 mg/dish: 58%

## C=CN1CCN(Cc2ccc(Cl)nc2)C1=N[N+](=O)[O-] [No. 1]
[3]
  Mortality (%): 100%
[4]; [9]
  mortality at 3 ppm: 100%

## O=[N+]([O-])N=C1N(C=Cc2ccccc2)CCN1Cc1ccc(Cl)nc1 [No. 2]
[4]; 48 h
  mortality at 3 ppm: 100%
[5]
  LC50: 3 ppm
[6]
  LC50: 1.5 µg/mL (≈ 4.19 µM)
[7]
  Density of Living Insects: 20

## COc1ccc(C=CN2CCN(Cc3ccc(Cl)nc3)C2=N[N+](=O)[O-])cc1 [No. 10]
[4]; [9]
  mortality at 3 ppm: 100%
[8]
  LD50 at 336 h: > 5000 mg/kg

## O=[N+]([O-])N=C1N(C=Cc2ccc3c(c2)OCO3)CCN1Cc1ccc(Cl)nc1 [No. 11]
[3]
  Mortality (%): 100%
[4]; [9]
  mortality at 3 ppm: 100%

## O=[N+]([O-])N=C1N(C=Cc2ccccc2Cl)CCN1Cc1ccc(Cl)nc1 [No. 12]
[3]
  Mortality (%): 100%

## O=[N+]([O-])N=C1N(C=Cc2ccc(Cl)cc2)CCN1Cc1ccc(Cl)nc1 [No. 14]
[3]
  Mortality (%): 100%

## CC(C)C=CN1CCN(Cc2ccc(Cl)nc2)C1=N[N+](=O)[O-] [No. 27]
[5]
  LC50: 1 ppm
[6]
  LC50: 0.3 µg/mL (≈ 0.927 µM)
[7]
  Density of Living Insects: 0
[8]
  LD50 at 336 h: 1000 mg/kg

## CCCCC(=CN1CCN(Cc2ccc(Cl)nc2)C1=N[N+](=O)[O-])CC [No. 33, 1-(2-chloropyridin-5-ylmethyl)-2-nitroimino-3-(2-ethyl-1hexenyl)imidazlidine]
[3]
  Mortality (%): 100%
[4]; [9]
  mortality at 3 ppm: 100%

## O=[N+]([O-])N=C1N(C=CCc2ccccc2)CCN1Cc1ccc(Cl)nc1 [No. 40]
[3]
  Mortality (%): 100%
[4]; [9]
  mortality at 3 ppm: 100%

## O=C(NC=CN1CCN(Cc2ccc(Cl)nc2)C1=N[N+](=O)[O-])c1ccccc1 [No. 41]
[3]
  Mortality (%): 100%

## CCSC=CN1CCN(Cc2ccc(Cl)nc2)C1=N[N+](=O)[O-] [No. 42, 1-(2-chloropyridin-5-ylmethyl)-2-nitroimino-3-(2-ethylthiovinyl)imidazolidine]
[3]
  Mortality (%): 100%

## C=CCN1CCN(Cc2ccc(Cl)nc2)C1=N[N+](=O)[O-] [Reference Chemical 1, 1(2-chloropyridin-5-ylmethyl)-2-nitroimino-3-allylimidazolidine, reference compound]
[5]
  LC50: 10 ppm
[6]
  LC50: 3 µg/mL (≈ 10.1 µM)
[7]
  Density of Living Insects: 25
[8]
  LD50 at 336 h: 100 to 200 mg/kg

## O=[N+]([O-])N=C1N(CCc2ccccc2)CCN1Cc1ccc(Cl)nc1 [Reference Chemical 2, 1(2-chloropyridin-5-ylmethyl)-2-nitroimino-3-(2-phenylethyl)imidazolidine, reference compound]
[5]
  LC50: 20 ppm
[6]
  LC50: 10 µg/mL (≈ 27.8 µM)
[7]
  Density of Living Insects: 108

## O=[N+]([O-])N=C1N(CCc2ccc(Cl)cc2)CCN1Cc1ccc(Cl)nc1 [Reference Chemical (1), 1(2-chloropyridin-5-ylmethyl)-2-nitroimino-3-{2-(4-chlorophenyl)ethyl}imiazolidine, reference compound]
[3]
  Mortality (%): 20%
[4]; [9]
  mortality at 3 ppm: 25%

## COCN1CCN(Cc2ccc(Cl)nc2)C1=N[N+](=O)[O-] [Reference Chemical (2), 1(2-chloropyridin-5-ylmethyl)-2-nitroimino-3-methoxymethylimidazolidine, reference compound]
[3]
  Mortality (%): 20%
[4]; [9]
  mortality at 3 ppm: 30%
